Source: patent EP3692101B1, “BRILLIANT BLUE (BBG) DYE DERIVATIVES AND STAINING COMPOSITIONS COMPRISING THE SAME FOR SELECTIVELY STAINING BIOLOGICAL SUBSTRATES” (priority 2017, dated 2019)

Tests used:
retina = assay: Ex-vivo staining of porcine eyes, dye extraction and HPLC quantification in retina near the peeled area; settings: ex-vivo swine eyes; for increase in the dyes content in the retina with respect to the staining formulation according to the invention: p=0.004
Experimental: (§1) To this end, a staining composition according to the invention was prepared having the following formulation (% by weight). • dye: Benzyl-BBG according to Example 4: 0.025% • Sodium phosphate monobasic dihydrate: 0.368% (SIGMA ALDRICH) • Sodium phosphate bibasic dihydrate: 0.711% (SIGMA ALDRICH) • Sodium chloride: 0.400% (SIGMA ALDRICH) • water for injectables: up to 100% (FRESENIUS KABI ITALIA S.R.L.).
(§2) This staining composition was compared with two staining composition available on the market, more specifically: • a staining composition including BBG and marketed under the trade name of ILM-BLUE® (D.O.R.C. Dutch Ophthalmic Research Center (International) B.V.), and with • a staining composition including methyl-BBG according to WO 2016/189475 marketed under the trade name of VIEW-ILM (AL.CHI.MI.A. S.r.l.).
(§3) Porcine eyes were obtained from a slaughterhouse and were prepared within 5 hours after death, the eyes were placed on a plastic holder, and a 360-degree limbal incision was performed for corneal removal, followed by total iris removal. Whole vitreous was gently extracted.
Next, 1 ml of BSS was placed in the eye and 40 µl of dye formulation was gently placed in the eye, by a Gilson pipet, for 30 seconds; then the BSS along the dye were removed and the eye rinsed with BSS. […]
Retina and ILM tissue samples obtained as described above were weighed and homogenized in 250-500 µl of methanol. […] The residues were reconstituted in 100 µl of mobile phase by vortexing for 120 s, filtered again on 0.45 µm filters and, finally, 20 µl aliquots were injected onto the chromatographic apparatus (each sample was analyzed in triplicate). […]
(§4) Quantification of the dye molecule was performed using 6-10 points external regression curves performed at 613 nm. […]
(§5) In the data analysis, statistical differences of ex-vivo data are determined using analysis of variance (ANOVA) followed by the Bonferroni-Dunn post hoc pairwise comparison procedure. […]

[1] = system: proteins and protein chains; assay: SDS-PAGE protein staining, whole set of molecular weight standards (spots versus background); settings: result in words; dye 0.05% by weight/volume
Experimental: The dye molecules according to the invention were tested in order to show their higher selectivity for proteins and protein chains with respect to BBG. For this purpose, SDS-PAGE electrophoresis tests were performed in order to compare the Benzyl-BBG according to the invention (Example 4) and the Ethyl-BBG according to Example 2 with a commercially available grade of BBG (Sigma-Aldrich 90% purity).
A set of molecular weight standards was created by mixing different amounts of known proteins (E.coli beta-galactosidase - 116.3 kDa, bovine serum albumin - 66.5 kDa, chicken ovalbumin - 42.7 kDa and equine cytochrome C - 12,384 Da) in such a way as to obtain bands of similar intensity. In order to do so, an inverse relationship between amount (as nanograms of protein) and molecular weight of any protein was initially achieved, and small adjustments were experimentally made. Polyacrylamide gel electrophoresis was done in 9% precast gels (Bio-Rad) at 20V for 60-90 minutes in denaturing conditions; standards were loaded in triplicate on separate lanes. […]

ILM = assay: Ex-vivo staining of porcine eyes, dye extraction and HPLC quantification in peeled ILM; settings: ex-vivo swine eyes; for amounts of the dye molecule in the ILM (mean): 40 µl dye formulation in 1 ml BSS for 30 seconds, mean of 6, BBG 0.025% (ILM-BLUE), methyl-BBG 0.03% (VIEW-ILM), Benzyl-BBG 0.025%
Experimental: as §1, §2, §3
Next, 1 ml of BSS was placed in the eye and 40 µl of dye formulation was gently placed in the eye, by a Gilson pipet, for 30 seconds; then the BSS along the dye were removed and the eye rinsed with BSS.
The peeling of ILM was carried out by forceps and the tissue placed in an Eppendorf tube, the rest of retina near the area of ILM peeling was collected and placed in another Eppendorf tube.
The average amount of ILM tissue was of about 2 mg, whereas the average amount of retina tissue was of about 20 mg.
All tissues (ILM and retina) were stored at -20°C before HPLC analysis.
Retina and ILM tissue samples obtained as described above were weighed and homogenized in 250-500 µl of methanol. The homogenates were then transferred in an Eppendorf tube, ultrasonically extracted using a Branson Sonifier, centrifuged at 1,000 x g for 10 min and filtered on 0.45 µm syringe filters. The filtrates were transferred into labeled, clean test tubes and evaporated to dryness under a stream of nitrogen. The residues were reconstituted in 100 µl of mobile phase by vortexing for 120 s, filtered again on 0.45 µm filters and, finally, 20 µl aliquots were injected onto the chromatographic apparatus (each sample was analyzed in triplicate). […]
as §4, §5

[2] = cited from earlier work

## CCOc1ccc(Nc2ccc(C(=C3C=CC(=[N+](CC)Cc4cccc(S(=O)(=O)[O-])c4)C=C3C)c3ccc(N(CC)Cc4cccc(S(=O)(=O)O)c4)cc3C)cc2)cc1 [BBG, Coomassie Brilliant Blue G-250]
retina
  increase in the dyes content in the retina with respect to the staining formulation according to the invention: 20.1 fold

## CCOc1ccc(N(Cc2ccccc2)c2ccc(C(=C3C=CC(=[N+](CC)Cc4cccc(S(=O)(=O)[O-])c4)C=C3C)c3ccc(N(CC)Cc4cccc(S(=O)(=O)O)c4)cc3C)cc2)cc1 [Benzyl-BBG]
retina; 40 µl dye formulation in 1 ml BSS for 30 seconds, mean of 6, BBG 0.025% (ILM-BLUE), methyl-BBG 0.03% (VIEW-ILM), Benzyl-BBG 0.025%
  amounts of the dye molecule in the retina (mean): 19.69 ng/mg tissue
[1]
  difference between the spot intensity of Benzyl-BBG and Ethyl-BBG: No significant difference
ILM
  amounts of the dye molecule in the ILM (mean): 214.88 ng/mg tissue
ILM; listed as benzyl-BBG
  amounts of the dye molecule in the ILM (mean): about 215 ng/mg tissue
ILM; p = 0,002
  increase of dye content in ILM with respect to the known formulation including BBG: 2.9 fold
ILM; p<0,001
  increase of dye content in ILM with respect to the known formulation including methyl-BBG: 6.0 fold

## c1ccc(CNCc2ccccc2)cc1 [dibenzylamine]
[2]
  pKa: 8.52

## CCOc1ccc(N(C)c2ccc(C(=C3C=CC(=[N+](CC)Cc4cccc(S(=O)(=O)[O-])c4)C=C3C)c3ccc(N(CC)Cc4cccc(S(=O)(=O)O)c4)cc3C)cc2)cc1 [methyl-BBG]
retina
  increase in the dyes content in the retina with respect to the staining formulation according to the invention: 10.9 fold
